From patent publication US10844044B2 (Vanderbilt University, priority 2018, dated 2020)
Like-named read-outs stand apart in the source and are kept apart here.

How the values were obtained:
[1] = test system: MV4:11 human cancer cell lines; assay: Anti-proliferative activity, CellTiter-Glo viability assay, 7 day protocol; type: cell-based; conditions: Homo sapiens, MV4:11 cells, 7 day incubation, read-out: GI50 on cellular proliferation of MV4:11 human cancer cell lines
Experimental: Viability assays are performed by dispensing […] into each well of an opaque 384-well plate and adding compounds at the indicated concentrations in a final volume of 32 μL and a final concentration of DMSO of 0.1% for all samples. After a set incubation period, 7 day protocol, the viability of cells in each well is assessed using the CellTiter-Glo assay (Promega), read on a GloMax 96 Microplane Luminometer (Promega). Serial dilutions of each cell type are included in all assays to generate standard curves and determine assay measurements are taken within the dynamic range of the instrument. GI50 values are calculated based on three biological replicates, each with three technical replicates. Data are expressed as mean plus/minus S.E.M.

WDR5 = WDR5 (Homo sapiens (Human), UniProt P61964); assay: TR-FRET binding assay (displacement of 10mer-Thr-FAM probe from WDR5); conditions: read-out: Ki for Inhibition of WDR5 by TR-FRET assay; TR-FRET, 10mer-Thr-FAM probe, WDR5-His tag 2 nM, pH 7.0

Row | SMILES | GI50 ([1]; MV4-11, 168 h) | other results
1 | Cc1cc(F)ccc1-c1cc(Cn2ccn(C)c2=N)cc(C(=O)NCc2ccc(Cl)c(Cl)c2)n1 [Example 5, N-(3,4-dichlorobenzyl)-6-(4-fluoro-2-methylphenyl)-4-((2-imino-3-methyl-2,3-dihydro-1H-imidazol-1-yl)methyl)picolinamide] | 240 nM | –
2 | Cc1cc(-c2cc(Cn3ccn(C)c3=N)cc(C(=O)NCc3ccc(Cl)c(Cl)c3)c2)ccn1 [Example 22, N-(3,4-Dichlorobenzyl)-3-((2-imino-3-methyl-2,3-dihydro-1H-imidazol-1-yl)methyl)-5-(2-methylpyridin-4-yl)benzamide] | 14000 nM | –
3 | COc1cnccc1-c1cc(Cn2ccn(C)c2=N)cc(C(=O)NCc2ccc(Cl)c(Cl)c2)c1 [Example 23, N-(3,4-Dichlorobenzyl)-3-((2-imino-3-methyl-2,3-dihydro-1H-imidazol-1-yl)methyl)-5-(3-methoxypyridin-4-yl)benzamide] | 6200 nM | –
4 | Cn1nccc1-c1cc(Cn2ccn(C)c2=N)cc(C(=O)NCc2ccc(Cl)c(Cl)c2)c1 [Example 26, N-(3,4-Dichlorobenzyl)-3-((2-imino-3-methyl-2,3-dihydro-1H-imidazol-1-yl)methyl)-5-(1-methyl-1H-pyrazol-5-yl)benzamide] | 790 nM | –
5 | Cc1cc([C@@H](C)NC(=O)c2cc(Cn3ccn(C)c3=N)cc(-c3ccc(F)cc3C)c2)ccc1F [Example 29, (R)-4′-Fluoro-N-(1-(4-fluoro-3-methylphenyl)ethyl)-5-((2-imino-3-methyl-2,3-dihydro-imidazol-1-yl)methyl)-2′-methyl-[1,1′-biphenyl]-3-carboxamide] | 780 nM | –
6 | Cc1cc([C@H](C)NC(=O)c2cc(Cn3ccn(C)c3=N)cc(-c3ccc(F)cc3C)c2)ccc1F [Example 30, (S)-4′-Fluoro-N-(1-(4-fluoro-3-methylphenyl)ethyl)-5-((2-imino-3-methyl-2,3-dihydro-1H-imidazol-1-yl)methyl)-2′-methyl-[1,1′-biphenyl]-3-carboxamide] | 100 nM | –
7 | Cc1cc(F)ccc1-c1cc(Cn2ccn(C)c2=N)cc(C(=O)N[C@@H](C)c2ccc(F)c(C(F)(F)F)c2)c1 [Example 31, (S)-4′-Fluoro-N-(1-(4-fluoro-3-(trifluoromethyl)phenyl)ethyl)-5-((2-imino-3-methyl-2,3-dihydro-1H-imidazol-1-yl)methyl)-2′-methyl-[1,1′-biphenyl]-3-carboxamide] | 300 nM | –
8 | Cc1cc(F)ccc1-c1cc(Cn2ccn(C)c2=N)cc(C(=O)N[C@H](C)c2ccc(F)c(C(F)(F)F)c2)c1 [Example 32, (R)-4′-Fluoro-N-(1-(4-fluoro-3-(trifluoromethyl)phenyl)ethyl)-5-((2-imino-3-methyl-2,3-dihydro-1H-imidazol-1-yl)methyl)-2′-methyl-[1,1′-biphenyl]-3-carboxamide] | 1500 nM | –
9 | Cc1cc([C@H](NC(=O)c2cc(Cn3ccn(C)c3=N)cc(-c3ccc(F)cc3C)c2)C(F)(F)F)ccc1F [Example 45, (S)-4′-fluoro-5-((2-imino-3-methyl-2,3-dihydro-1H-imidazol-1-yl)methyl)-2′-methyl-N-(2,2,2-trifluoro-1-(4-fluor-3-methylphenyl)ethyl)-[1,1′-biphenyl]-3-carboxamide] | 1800 nM | –
10 | Cc1cc([C@@H](NC(=O)c2cc(Cn3ccn(C)c3=N)cc(-c3ccc(F)cc3C)c2)C2CC2)ccc1F [Example 54, (S)—N-(Cyclopropyl(4-fluoro-3-methylphenyl)methyl)-4′-fluoro-5-((2-imino-3-methyl-2,3-dihydro-1H-imidazol-1-yl)methyl)-2′-methyl-[1,1′-biphenyl]-3-carboxamide] | < 100 nM | –
11 | Cc1cc(CNC(=O)c2cc(Cn3ccn(C)c3=N)cc(-c3c(C)cc(F)cc3C)c2)ccc1Cl [Example 59] | – | GI50 ([1]; 168 h): 460 nM
12 | Cc1cc(CNC(=O)c2cc(Cn3ccn(C)c3=N)cc(-c3ncc(F)cc3C)c2)ccc1Cl [Example 70, N-(4-Chloro-3-methylbenzyl)-3-(5-fluoro-3-methylpyridin-2-yl)-5-((2-imino-3-methyl-2,3-dihydro-1H-imidazol-1-yl)methyl)benzamide] | 2400 nM | –
13 | Cc1cc([C@@H](NC(=O)c2cc(Cn3ccn(C)c3=N)cc(-c3ncc(F)cc3C(F)(F)F)c2)C2CC2)ccc1F [Example 72, (S)—N-(Cyclopropyl(4-fluoro-3-methylphenyl)methyl)-3-(5-fluoro-3-(trifluoromethyl)pyridin-2-yl)-5-((2-imino-3-methyl-2,3-dihydro-1H-imidazol-1-yl)methyl)benzamide] | 180 nM | –
14 | Cc1cc([C@@H](NC(=O)c2cc(Cn3ccn(C)c3=N)cc(-c3ccc(F)cc3OC(F)F)c2)C2CC2)ccc1F [Example 73, (S)—N-(cyclopropyl(4-fluoro-3-methylphenyl)methyl)-2′-(difluoromethoxy)-4′-fluoro-5-((2-imino-3-methyl-2,3-dihydro-1-imidazol-1-yl)methyl)-[1,1′-biphenyl]-3-carboxamide] | 1800 nM | –
15 | COc1cc(OC)cc(C(NC(=O)c2cc(Cn3ccn(C)c3=N)cc(-c3ncc(F)cc3C(F)(F)F)c2)C2CC2)c1 (centres unmarked) [Example 74, N-(Cyclopropyl(3,5-dimethoxyphenyl)methyl)-3-(5-fluoro-3-(trifluoromethyl)pyridin-2-yl)-5-((2-imino-3-methyl-2,3-dihydro-1H-imidazol-1-yl)methyl)benzamide] | 4500 nM | –
16 | Cc1ccnc(C(NC(=O)c2cc(Cn3ccn(C)c3=N)cc(-c3ncc(F)cc3C(F)(F)F)c2)C2CC2)c1 (centres unmarked) [Example 75, N-(Cyclopropyl(4-methylpyridin-2-yl)methyl)-3-(5-fluoro-3-(trifluoromethyl)pyridin-2-yl)-5-((2-imino-3-methyl-2,3-dihydro-1H-imidazol-1-yl)methyl)benzamide] | 12000 nM | –
17 | Cc1cc(CNC(=O)c2cc(Cn3ccn(C)c3=N)cc(-c3cccnc3C(F)(F)F)c2)ccc1Cl [Example 76, N-(4-Chloro-3-methylbenzyl)-3-((2-imin-3-methyl-2,3-dihydro-1H-imidazol-1-yl)methyl)-5-(2-(trifluoromethyl)pyridin-3-yl)benzamide] | 260 nM | –
18 | Cc1cc(F)ccc1-c1cc(Cn2ccn(C)c2=N)cc(C(=O)N[C@H](C)c2ccc(F)c(C(F)(F)F)c2)n1 [Example 360, (R)-6-(4-fluoro-2-methylphenyl)-N-(1-(4-fluoro-3-(trifluoromethyl)phenyl)ethyl)-4-((2-imino-3-methyl-2,3-dihydro-1H-imidazol-1-yl)methyl)picolinamide] | – | Ki (WDR5): 1 nM
19 | Cc1cc([C@@H](NC(=O)c2cc(CN3CCCOC3=N)cc(-c3cccnc3C(F)(F)F)c2)C2CC2)ccc1F [Example 362, (S)—N-(Cyclopropyl(4-fluoro-3-methylphenyl)methyl)-3-((2-imino-1,3-oxazinan-3-yl)methyl)-5-(2-(trifluoromethyl)pyridin-3-yl)benzamide] | – | Ki (WDR5): 0.72 nM
20 | Cc1cc([C@@H](NC(=O)c2cc(Cn3cnn(C)c3=N)cc(-c3cn(C)nc3C(F)(F)F)c2)C2CC2)ccc1F [Example 363, (S)—N-(Cyclopropyl(4-fluoro-3-methylphenyl)methyl)-3-((5-imino-1-methyl-1,5-dihydro-4H-1,2,4-triazol-4-yl)methyl)-5-(1-methyl-3-(trifluoromethyl)-H-pyrazol-4-yl)benzamide] | – | Ki (WDR5): < 0.1 nM
